Data: patent publication US6737383B1, “Herbicidal oxadiazolidines” (priority 1999, dated 2004)

Experiments:
[1] = tested on: pigweed; assay: Test B pre/postemergence pigweed; type: in vivo, Amaranthus retroflexus
Procedure, shortened: (§1)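 Herbicidal effect was estimated by eye on a ten-point control scale after plants spent twelve to sixteen days in a greenhouse following soil or foliar treatment. Foliar sprays targeted plants at one to four leaves; all doses were formulated in a non-phytotoxic solvent with surfactant.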

[2] = tested on: sugar beet; assay: Test B pre/postemergence sugar beet; type: in vivo, Beta vulgaris
Procedure, shortened: as §1

[3] = tested on: blackgrass; assay: Test B pre/postemergence blackgrass; type: in vivo, Alopecurus myosuroides
Procedure, shortened: as §1

[4] = tested on: rape; assay: Test B pre/postemergence rape; type: in vivo, Brassica napus
Procedure, shortened: as §1

[5] = tested on: crabgrass; assay: Test B pre/postemergence crabgrass; type: in vivo, Digitaria sanguinalis
Procedure, shortened: as §1

[6] = tested on: wheat; assay: Test B pre/postemergence wheat; type: in vivo, Triticum aestivum
Procedure, shortened: as §1

[7] = tested on: soybean; assay: Test B pre/postemergence soybean; type: in vivo, Glycine max
Procedure, shortened: as §1

[8] = tested on: purple nutsedge; assay: Test B pre/postemergence purple nutsedge; type: in vivo, Cyperus rotundus
Procedure, shortened: as §1

[9] = tested on: cocklebur; assay: Test B pre/postemergence cocklebur; type: in vivo, Xanthium strumarium
Procedure, shortened: as §1

[10] = tested on: surinam grass; assay: Test B pre/postemergence surinam grass; type: in vivo, Brachiaria decumbens
Procedure, shortened: as §1

[11] = tested on: wild oat; assay: Test B pre/postemergence wild oat; type: in vivo, Avena fatua
Procedure, shortened: as §1

[12] = tested on: velvetleaf; assay: Test B pre/postemergence velvetleaf; type: in vivo, Abutilon theophrasti
Procedure, shortened: as §1

[13] = tested on: corn; assay: Test B pre/postemergence corn; type: in vivo, Zea mays
Procedure, shortened: as §1

[14] = tested on: giant foxtail; assay: Test B pre/postemergence giant foxtail; type: in vivo, Setaria faberii
Procedure, shortened: as §1

[15] = tested on: bedstraw; assay: Test B pre/postemergence bedstraw; type: in vivo, Galium aparine
Procedure, shortened: as §1

[16] = tested on: morningglory; assay: Test B pre/postemergence morningglory; type: in vivo, Ipomoea hederacea
Procedure, shortened: as §1

[17] = Postemergence, Rate 62 g/ha, scale of 0 to 10, 0 is no effect, 10 is complete control
[18] = Postemergence, Rate 125 g/ha, scale 0 to 10, 0 is no effect, 10 is complete control
[19] = Postemergence, Rate 500 g/ha, scale 0 to 10, 0 is no effect, 10 is complete control
[20] = Preemergence, Rate 62 g/ha, scale of 0 to 10 where 0 is no effect and 10 is complete control
[21] = Preemergence, Rate 125 g/ha, scale 0 to 10, 0 is no effect, 10 is complete control
[22] = Preemergence, Rate 500 g/ha, scale of 0 to 10 where 0 is no effect and 10 is complete control
[23] = Postemergence, Rate 250 g/ha, scale 0 to 10
[24] = Preemergence, Rate 250 g/ha, scale 0 to 10, 0 is no effect, 10 is complete control
[25] = Preemergence, Rate 500 g/ha, scale 0 to 10, 0 is no effect, 10 is complete control

SMILES: CC(C)N(C(=O)n1oc(=O)n(CC2OCCO2)c1=O)c1ccc(F)cc1F [Compound 501]
- Redroot pigweed plant response rating [1, 17]: 0
- Redroot pigweed plant response rating [1, 18]: 4
- Plant response rating, Redroot pigweed [1, 19]: 5
- Plant response rating, Redroot pigweed [1, 20]: 9
- Redroot pigweed plant response rating [1, 21]: 10
- Redroot pigweed plant response rating [1, 22]: 10
- Sugarbeets plant response rating [2, 17]: 5
- Sugarbeets plant response rating [2, 18]: 5
- Plant response rating, Sugarbeets [2, 19]: 8
- Plant response rating, Sugarbeets [2, 20]: 0
- Sugarbeets plant response rating [2, 21]: 3
- Sugarbeets plant response rating [2, 22]: 8
- Blackgrass plant response rating [3, 17]: 3
- Blackgrass plant response rating [3, 18]: 6
- Blackgrass plant response rating [3, 23]: 6
- Plant response rating, Blackgrass [3, 19]: 7
- Plant response rating, Blackgrass [3, 20]: 5
- Blackgrass plant response rating [3, 21]: 5
- Blackgrass plant response rating [3, 24]: 9
- Blackgrass plant response rating [3, 22]: 9
- Rape plant response rating [4, 17]: 2
- Rape plant response rating [4, 18]: 2
- Plant response rating, Rape [4, 19]: 7
- Plant response rating, Rape [4, 20]: 0
- Rape plant response rating [4, 21]: 0
- Rape plant response rating [4, 22]: 10
- Crabgrass plant response rating [5, 17]: 7
- Crabgrass plant response rating [5, 18]: 8
- Crabgrass plant response rating [5, 23]: 9
- Plant response rating, Crabgrass [5, 19]: 8
- Plant response rating, Crabgrass [5, 20]: 8
- Crabgrass plant response rating [5, 21]: 9
- Crabgrass plant response rating [5, 22]: 9
- Wheat plant response rating [6, 17]: 2
- Plant response rating, Wheat [6, 19]: 3
- Plant response rating, Wheat [6, 20]: 4
- Wheat plant response rating [6, 21]: 4
- Wheat plant response rating [6, 22]: 8
- Soybean plant response rating [7, 17]: 4
- Soybean plant response rating [7, 18]: 3
- Plant response rating, Soybean [7, 19]: 5
- Plant response rating, Soybean [7, 20]: 0
- Soybean plant response rating [7, 21]: 0
- Soybean plant response rating [7, 22]: 8
- Nutsedge plant response rating [8, 18]: 0
- Plant response rating, Nutsedge [8, 19]: 2
- Plant response rating, Nutsedge [8, 20]: 0
- Nutsedge plant response rating [8, 21]: 3
- Nutsedge plant response rating [8, 22]: 9
- Cocklebur plant response rating [9, 17]: 0
- Cocklebur plant response rating [9, 18]: 0
- Cocklebur plant response rating [9, 23]: 2
- Plant response rating, Cocklebur [9, 19]: 5
- Plant response rating, Cocklebur [9, 20]: 0
- Cocklebur plant response rating [9, 21]: 0
- Cocklebur plant response rating [9, 24]: 0
- Cocklebur plant response rating [9, 22]: 3
- B. signalgrass plant response rating [10, 17]: 2
- B. signalgrass plant response rating [10, 18]: 6
- B. signalgrass plant response rating ([10]; Postemergence, Rate 250 g/ha, scale 0 to 10, 0 no effect, 10 complete control): 7
- Plant response rating, B. signalgrass [10, 19]: 7
- Plant response rating, B. signalgrass [10, 20]: 8
- B. signalgrass plant response rating [10, 21]: 9
- B. signalgrass plant response rating [10, 24]: 9
- B. signalgrass plant response rating [10, 25]: 10
- Wild oats plant response rating [11, 17]: 0
- Wild oats plant response rating [11, 18]: 0
- Plant response rating, Wild oats [11, 19]: 3
- Plant response rating, Wild oats [11, 20]: 0
- Wild oats plant response rating [11, 21]: 7
- Wild oats plant response rating [11, 22]: 10
- Velvetleaf plant response rating [12, 17]: 0
- Velvetleaf plant response rating [12, 18]: 0
- Plant response rating, Velvetleaf [12, 19]: 3
- Plant response rating, Velvetleaf [12, 20]: 0
- Velvetleaf plant response rating [12, 21]: 2
- Velvetleaf plant response rating [12, 22]: 5
- Corn plant response rating [13, 17]: 0
- Corn plant response rating [13, 18]: 0
- Corn plant response rating [13, 23]: 4
- Plant response rating, Corn [13, 19]: 6
- Corn plant response rating [13, 21]: 2
- Giant foxtail plant response rating [14, 17]: 8
- Giant foxtail plant response rating [14, 18]: 8
- Plant response rating, Giant foxtail [14, 19]: 8
- Plant response rating, Giant foxtail [14, 20]: 9
- Giant foxtail plant response rating [14, 21]: 10
- Giant foxtail plant response rating [14, 22]: 10
- Plant response rating, Bedstraw [15, 19]: 9
- Plant response rating, Bedstraw [15, 20]: 2
- Bedstraw plant response rating [15, 21]: 9
- Bedstraw plant response rating [15, 24]: 10
- Bedstraw plant response rating [15, 25]: 9
- Morningglory plant response rating [16, 17]: 0
- Morningglory plant response rating [16, 18]: 3
- Plant response rating, Morningglory [16, 19]: 4
- Plant response rating, Morningglory [16, 20]: 0
- Morningglory plant response rating [16, 21]: 0
- Morningglory plant response rating [16, 22]: 5
